Results: ChEMBL document CHEMBL1201862, “PubChem BioAssay data set” (2004)
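A five-concentration, 48-hour dose response in 96-well plates underlies each endpoint, interpolated linearly between surrounding concentrations. Abbreviation: GI50, concentration required for 50% inhibition of growth.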 Active and inactive are the calls of the source. Cut-off read from the data, not from the text of the source: active = GI50 up to about 1.1 µM and inactive = higher.

How the values were obtained:
Experiment in all cases: NCI tumour cell line growth inhibition, 48 h
M19-MEL = test system: M19-MEL
NCI-H226 = test system: NCI-H226
SF-268 = test system: SF-268
SN12C = test system: SN12C
KM12 = test system: KM12
OVCAR-3 = test system: OVCAR-3
K562 = test system: K562
T47D = test system: T47D
NCI-H522 = test system: NCI-H522
NCI-H460 = test system: NCI-H460
MDA-MB-435 = test system: MDA-MB-435
PC-3 = test system: PC-3
OVCAR-5 = test system: OVCAR-5
A498 = test system: A498
786-0 = test system: 786-0
CCRF-CEM = test system: CCRF-CEM
RPMI-8226 = test system: RPMI-8226
IGROV-1 = test system: IGROV-1
EKVX = test system: EKVX
MDA-MB-231 = test system: MDA-MB-231

Row | Structure (SMILES) | GI50 (M19-MEL) | GI50 (NCI-H226) | GI50 (SF-268) | GI50 (SN12C) | GI50 (KM12) | GI50 (OVCAR-3) | GI50 (K562) | GI50 (T47D) | GI50 (NCI-H522) | GI50 (NCI-H460) | GI50 (MDA-MB-435) | GI50 (PC-3) | GI50 (OVCAR-5) | GI50 (A498) | GI50 (786-0) | GI50 (CCRF-CEM) | GI50 (RPMI-8226) | GI50 (IGROV-1) | GI50 (EKVX) | GI50 (MDA-MB-231)
1 | Cc1nc2ccc(NCCN(C)C)c3c(=O)c4ccccc4n1c23 | 5.9 µM (inactive) | 1.56 µM (inactive) | 3.48 µM (inactive) | 2.31 µM (inactive) | 2.21 µM (inactive) | 5 µM (inactive) | 1.39 µM (inactive) | 12.2 µM (inactive) | 1.52 µM (inactive) | 0.736 µM (active) | 2.09 µM (inactive) | 1.1 µM (active) | 4.9 µM (inactive) | 3.91 µM (inactive) | 1.68 µM (inactive) | 1.22 µM (inactive) | 2.04 µM (inactive) | 1.75 µM (inactive) | 3.05 µM (inactive) | 1.05 µM (active)
2 | CNC(=O)OCc1nc(SC)n(C)c1COC(=O)NC | 182 µM (inactive) | 83.8 µM (inactive) | 119 µM (inactive) | 103 µM (inactive) | 191 µM (inactive) | 187 µM (inactive) | 147 µM (inactive) | 171 µM (inactive) | 74.1 µM (inactive) | 59.6 µM (inactive) | 161 µM (inactive) | 171 µM (inactive) | 170 µM (inactive) | 198 µM (inactive) | 139 µM (inactive) | 44.8 µM (inactive) | 117 µM (inactive) | 175 µM (inactive) | 230 µM (inactive) | 187 µM (inactive)
3 | CCC1(c2ccc(N)cc2)CCC(=O)NC1=O (stereo not given) [AMINOGLUTETHIMIDE] | 2210 µM (inactive) | 1880 µM (inactive) | 2860 µM (inactive) | 3400 µM (inactive) | 2470 µM (inactive) | 1810 µM (inactive) | 2080 µM (inactive) | 2070 µM (inactive) | 2640 µM (inactive) | 2580 µM (inactive) | > 2740 µM (inactive) | 1170 µM (inactive) | > 4920 µM (inactive) | 2310 µM (inactive) | 3420 µM (inactive) | 665 µM (inactive) | 2490 µM (inactive) | 3450 µM (inactive) | 3880 µM (inactive) | 2610 µM (inactive)
